For one molecule, Activity and inhibition results are on record in ChEMBL document CHEMBL5046291, “Evodiamine-Inspired Topoisomerase-Histone Deacetylase Dual Inhibitors: Novel Orally Active Antitumor Agents for Leukemia Therapy” (J Med Chem, 2022).

Molecules are shown by their SMILES. The source made the active and inactive calls. The rule behind the calls is not given here.

The nature of data set [1]: Toxicity in BALB/C mouse xenografted with HEL cells assessed as animal death at 5 to 10 mg/kg, po qd for 14 days consecutively. In kind it is organism-based. Particulars: in vivo, 336 h, dose 5-10 mg/kg, time 14 day.
For data set [2], the target named is Histone deacetylase (Homo sapiens) (UniProt Q13547+O15379+Q9UBN7+Q92769+Q9UQL6+Q8WUI4+Q9BY41+Q96DB2+P56524+Q9UKV0+Q969S8). Description: In vivo inhibition of HDAC in HEL cells xenografted in BALB/C mouse assessed as upregulation of caspase-9 levels at 5 to 10 mg/kg by immunohistochemical staining method. Particulars: dose 5-10 mg/kg. In kind it is functional, organism-based.

Turning to `CN1c2ccc(F)cc2C(=O)N2CCc3c([nH]c4ccc(OCc5ccc(/C=C/C(=O)NO)cc5)cc34)C21` (configuration not stated), the Activity result in data set [1] was “Non-Toxic”. The inhibition entry in data set [2] was “Active”.
